Reference: PubChem BioAssay AID328 (DTP/NCI, 2004)
Where “and” joins values, the source holds several entries; their conditions need not be identical. Equal values may be shown once. Toxic doses and inconclusive results are not listed.

System: BDF1 mice, P388 leukemia ip, median survival T/C
Assay: NCI In Vivo Anticancer Drug Screen. Data for tumor model P388 Leukemia (intraperitoneal) in B6D2F1 (BDF1) mice
Details: endpoint: median survival time, higher = longer survival
In short: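 Antitumour effect was judged in vivo: survival in drug-treated mice, normalised to that of vehicle-dosed controls, gives the reported T/C.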

[1] = dose: 6.25 mg/kg/injection, schedule: Q01DX009 (ip), vehicle: saline
[2] = dose: 12.5 mg/kg/injection, schedule: Q01DX009 (ip), vehicle: saline
[3] = dose: 25.0 mg/kg/injection, schedule: Q01DX009 (ip), vehicle: saline
[4] = dose: 25.0 mg/kg/injection, schedule: Q04DX003 (ip), vehicle: saline
[5] = dose: 50.0 mg/kg/injection, schedule: Q01DX009 (ip), vehicle: saline

CC[n+]1cccc(NC(=O)c2ccc(NC(=O)c3ccc(C(=O)Nc4ccc(C(=O)Nc5ccc[n+](CC)c5)cc4)cc3)cc2)c1
T/C (dose: 0.44 mg/kg/injection, schedule: Q04DX003 (ip), vehicle: saline): 118 % of control | T/C (dose: 0.88 mg/kg/injection, schedule: Q01DX009 (ip), vehicle: saline): 150 % of control | T/C (dose: 1.32 mg/kg/injection, schedule: Q01DX009 (ip), vehicle: saline): 163 % of control | T/C (dose: 2.0 mg/kg/injection, schedule: Q01DX009 (ip), vehicle: saline): 190 % of control | T/C (dose: 2.77 mg/kg/injection, schedule: Q01DX009 (ip), vehicle: saline): 204 % of control | T/C (dose: 3.0 mg/kg/injection, schedule: Q01DX009 (ip), vehicle: saline): 177 % of control | T/C (dose: 4.17 mg/kg/injection, schedule: Q01DX009 (ip), vehicle: saline): 191 % of control | T/C [1]: 183 % of control and 220 % of control | T/C (dose: 9.38 mg/kg/injection, schedule: Q01DX009 (ip), vehicle: saline): 237 % of control | T/C (dose: 11.0 mg/kg/injection, schedule: Q04DX003 (ip), vehicle: saline): 168 % of control | T/C [2]: 295 % of control | T/C (dose: 16.5 mg/kg/injection, schedule: Q04DX003 (ip), vehicle: saline): 200 % of control | T/C [3]: 90 % of control | T/C [4]: 200 % of control | T/C (dose: 37.5 mg/kg/injection, schedule: Q04DX003 (ip), vehicle: saline): 181 % of control

Nc1ncnc2c1cnn2CCCl
T/C (dose: 100.0 mg/kg/injection, schedule: Q04DX003 (ip), vehicle: saline with Tween-80): 122 % of control | T/C (dose: 200.0 mg/kg/injection, schedule: Q04DX003 (ip), vehicle: saline with Tween-80): 118 % of control

CN(CCCl)Cc1ccccc1
T/C (dose: 0.04 mg/kg/injection, schedule: Q01DX009 (ip), vehicle: saline): 95 % of control | T/C (dose: 0.07 mg/kg/injection, schedule: Q01DX009 (ip), vehicle: saline): 87 % of control | T/C (dose: 22.0 mg/kg/injection, schedule: Q04DX003 (ip), vehicle: saline): 104 % of control | T/C [4]: 109 % of control | T/C (dose: 33.0 mg/kg/injection, schedule: Q01DX009 (ip), vehicle: saline sonified): 116 % of control | T/C (dose: 35.0 mg/kg/injection, schedule: Q04DX003 (ip), vehicle: saline): 109 % of control | T/C (dose: 50.0 mg/kg/injection, schedule: Q01DX009 (ip), vehicle: saline sonified): 120 % of control | T/C [5]: 210 % of control | T/C (dose: 75.0 mg/kg/injection, schedule: Q01DX009 (ip), vehicle: saline sonified): 195 % of control | T/C (dose: 100.0 mg/kg/injection, schedule: Q01DX009 (ip), vehicle: saline): 155 % of control | T/C (dose: 150.0 mg/kg/injection, schedule: Q04DX003 (ip), vehicle: saline): 175 % of control

CC(O)C(c1ccccc1)S(C)(=O)=O (centres undefined)
T/C (dose: 100.0 mg/kg/injection, schedule: Q04DX003 (ip), vehicle: Klucel (hydroxypropylcellulose) (HPC)): 95 % of control | T/C (dose: 200.0 mg/kg/injection, schedule: Q04DX003 (ip), vehicle: Klucel (hydroxypropylcellulose) (HPC)): 104 % of control | T/C (dose: 400.0 mg/kg/injection, schedule: Q04DX003 (ip), vehicle: Klucel (hydroxypropylcellulose) (HPC)): 91 % of control

CCOC(=O)/C(C#N)=C\c1cc(=O)c(OC)co1
T/C (dose: 100.0 mg/kg/injection, schedule: Q01DX001 (ip), vehicle: Klucel (hydroxypropylcellulose) (HPC)): 90 % of control | T/C (dose: 200.0 mg/kg/injection, schedule: Q01DX001 (ip), vehicle: Klucel (hydroxypropylcellulose) (HPC)): 100 % of control | T/C (dose: 400.0 mg/kg/injection, schedule: Q01DX001 (ip), vehicle: Klucel (hydroxypropylcellulose) (HPC)): 100 % of control

COc1ccc2c(c1C)CCC1(C(=O)O)CC(C)C(O)CC21 (centres undefined)
T/C (dose: 50.0 mg/kg/injection, schedule: Q04DX003 (ip), vehicle: saline sonified): 95 % of control | T/C (dose: 100.0 mg/kg/injection, schedule: Q04DX003 (ip), vehicle: saline sonified): 100 % of control | T/C (dose: 200.0 mg/kg/injection, schedule: Q04DX003 (ip), vehicle: saline sonified): 100 % of control

COc1cccc2c1C(=O)c1c(O)c3c(c(O)c1C2=O)CC(O)(/C(C)=N/NC(=O)CCCCCCC(=O)N/N=C(\C)C1(O)Cc2c(O)c4c(c(O)c2C(OC2CC(N)C(O)C(C)O2)C1)C(=O)c1c(OC)cccc1C4=O)CC3OC1CC(N)C(O)C(C)O1 (centres undefined)
T/C (dose: 2.0 mg/kg/injection, schedule: Q01DX009 (ip), vehicle: water): 165 % of control | T/C (dose: 4.0 mg/kg/injection, schedule: Q01DX009 (ip), vehicle: water): 201 % of control

CCCCCC(CN(C)C)C(O)/C=C/c1ccccc1Cl (centres undefined)
T/C (dose: 3.12 mg/kg/injection, schedule: Q01DX009 (ip), vehicle: saline): 110 % of control | T/C [1]: 100 % of control | T/C [2]: 105 % of control | T/C [3]: 107 % of control | T/C [5]: 117 % of control
